The values that follow come from patent publication US20220105150A1, “AMPHIPATHIC ALPHA-HELICAL ANTIMICROBIAL PEPTIDES TREAT INFECTIONS BY GRAM-NEGATIVE PATHOGENS” (priority 2019, published 2022).

One test relates to A. baumannii strain 649. The class given is cell-based, Acinetobacter baumannii. The following applies: for fold loss of antimicrobial activity in 25% human sera: 25% human sera versus no serum; for MIC 25% human serum: MH medium supplemented with 25% (v/v) human sera; for MIC No serum: MH medium. The procedure:
Hemoglobin release was determined spectrophotometrically at 570 nm.
Because only unbound AMP is available to interact with the therapeutic target, the extent of binding between AMPs and serum proteins can have significant effects on efficacy of these drugs. […] This assay estimates the in vivo bioavailability of our AMPs. […] An increase in MIC in the presence of serum is attributed to inhibition of antimicrobial activity due to binding to serum proteins.

The subject of test [1] is Acinetobacter baumannii isolates resistant to classical antibiotics. The test is classed as cell-based. As to conditions: for MICGM: geometric mean over 20 strains; for MIC 101887: strain 101887 (lower line); for MIC 961997: strain 961997 (lower line); for MIC 963618: strain 963618 (lower line); for MIC 964304: strain 964304 (lower line); for MIC 977751: strain 977751 (lower line); for MIC 981653: strain 981653 (lower line); for MIC 1002956: strain 1002956 (lower line); for MIC 1007660: strain 1007660 (lower line); for MIC 1010282: strain 1010282 (lower line); for MIC 1035166: strain 1035166 (lower line).

SMILES strings stand for the structures. Converted amounts (≈) assume the structure as drawn.

On to `CC(=O)N[C@H](CCCCN)C(=O)N[C@H](CC(C)C)C(=O)N[C@H](CCN)C(=O)N[C@H](CO)C(=O)N[C@H](CC(C)C)C(=O)N[C@H](CC(C)C)C(=O)N[C@H](CCN)C(=O)N[C@@H](C(=O)N[C@H](CC(C)C)C(=O)N[C@H](CO)C(=O)N[C@H](CCN)C(=O)N[C@H](C)C(=O)N[C@H](C)C(=O)N[C@H](C)C(=O)N[C@H](C)C(=O)N[C@H](C)C(=O)N[C@H](CC(C)C)C(=O)N[C@H](CCN)C(=O)N[C@@H](C(=O)N[C@H](CC(C)C)C(=O)N[C@H](CC(C)C)C(=O)N[C@H](CCN)C(=O)N[C@H](C)C(=O)N[C@H](CC(C)C)C(=O)N[C@H](CO)C(=O)N[C@H](CCN)C(N)=O)[C@H](C)O)[C@H](C)O` [D86(K13A/K16A)-(Lys^1-6Dab-1), Ac-KL(Dab)SLL(Dab)TLS(Dab)AAAAAL(Dab)TLL(Dab)ALS(Dab)-amide], for which, in the test with A. baumannii strain 649, the “fold loss of antimicrobial activity in 25% human sera” value is reported as 4 fold, the “MIC 25% human serum” value is 3.0 µM (≈ 7.75 µg/mL) and the “MIC No serum” value was 0.8 µM (≈ 2.07 µg/mL). Besides, in test [1], the MICGM stood at 0.9 µM, the “MIC 101887” value worked out at 0.5 µM (≈ 1.29 µg/mL), the “MIC 961997” value is 0.8 µM (≈ 2.07 µg/mL) and the “MIC 963618” value came to 0.8 µM (≈ 2.07 µg/mL). Besides, in test [1], the “MIC 964304” value amounted to 1.5 µM (≈ 3.87 µg/mL), the “MIC 977751” value is 3.1 µM (≈ 8.01 µg/mL), the “MIC 981653” value was found to be 0.4 µM (≈ 1.03 µg/mL) and the “MIC 1002956” value turned out to be 0.8 µM (≈ 2.07 µg/mL). Besides, in test [1], the “MIC 1007660” value came out at 0.8 µM (≈ 2.07 µg/mL), the “MIC 1010282” value was 0.8 µM (≈ 2.07 µg/mL) and the “MIC 1035166” value stood at 0.8 µM (≈ 2.07 µg/mL).
Turning to `CC(=O)N[C@H](CCCCN)C(=O)N[C@H](CC(C)C)C(=O)N[C@H](CN)C(=O)N[C@H](CO)C(=O)N[C@H](CC(C)C)C(=O)N[C@H](CC(C)C)C(=O)N[C@H](CN)C(=O)N[C@@H](C(=O)N[C@H](CC(C)C)C(=O)N[C@H](CO)C(=O)N[C@H](CN)C(=O)N[C@H](C)C(=O)N[C@H](C)C(=O)N[C@H](C)C(=O)N[C@H](C)C(=O)N[C@H](C)C(=O)N[C@H](CC(C)C)C(=O)N[C@H](CN)C(=O)N[C@@H](C(=O)N[C@H](CC(C)C)C(=O)N[C@H](CC(C)C)C(=O)N[C@H](CN)C(=O)N[C@H](C)C(=O)N[C@H](CC(C)C)C(=O)N[C@H](CO)C(=O)N[C@H](CN)C(N)=O)[C@H](C)O)[C@H](C)O` [D105(K13A/K16A)-(Lys^1-6Dap-1), Ac-KL(Dap)SLL(Dap)TLS(Dap)AAAAAL(Dap)TLL(Dap)ALS(Dap)-amide], in the test with A. baumannii strain 649, the “fold loss of antimicrobial activity in 25% human sera” value was determined as 15 fold, the “MIC 25% human serum” value amounted to 12.5 µM (≈ 31.2 µg/mL) and the “MIC No serum” value turned out to be 0.8 µM (≈ 2 µg/mL). In test [1], the MICGM came out at 2.0 µM, the “MIC 101887” value was 3.2 µM (≈ 8 µg/mL), the “MIC 961997” value is 3.2 µM (≈ 8 µg/mL) and the “MIC 963618” value stood at 1.6 µM (≈ 4 µg/mL). Also, in test [1], the “MIC 964304” value came to 3.2 µM (≈ 8 µg/mL), the “MIC 977751” value stood at 0.8 µM (≈ 2 µg/mL), the “MIC 981653” value stood at 1.6 µM (≈ 4 µg/mL) and the “MIC 1002956” value is 1.6 µM (≈ 4 µg/mL). In test [1], the “MIC 1007660” value came out at 3.2 µM (≈ 8 µg/mL), the “MIC 1010282” value was determined as 1.6 µM (≈ 4 µg/mL) and the “MIC 1035166” value worked out at 3.2 µM (≈ 8 µg/mL).
